This note sets out measurements from article PMC7531004, “Discovery of gramicidin A analogues with altered activities by multidimensional screening of a one-bead-one-compound library” (Nature Communications, 2020).

SMILES strings stand for the structures. Where a SMILES comes first, the peptide text is derived from it. [ ]: non-standard residue; d: D form. The star is where a group is joined. NHCH2CH2OH = OCCN*; For = O=C*

Data set [1] deals with P388 mouse leukemia cells. The conditions noted are these: 92 h. In a few lines: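 Peptide stocks diluted 250× in growth medium; P388 cells 1 × 10^4 cells/mL final; 37 °C, 5% CO2, 92 h. WST-1 + 1-methoxy PMS, 4 h, A415. Output: % viability.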
Data set [2] is described as follows: H+/Na+ transport assay of bead-derived peptides (one-point).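 Also: relative to parent gramicidin A activity set to 1.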 Conditions: bead-derived peptide solution, EYPC/EYPG LUVs. Type of data set: biochemical. Also on record: key: relative activity; mean of two control wells = 1.00. An outline of the steps:
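Values are normalized fluorescence, with Triton X-100 defining 100% and untreated LUVs 0%, and the two control wells averaging 1.00. Vesicles carried 1.0 mM pyranine and included egg yolk phosphatidylglycerol. Peptides were incubated with them 30 min at room temperature.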

Data set [3] concerns Streptococcus pyogenes SSI-9. In words: Antibacterial activity assay of bead-derived peptides (three concentrations). It counts as cell-based. Also on record: key: +++: inhibition by the 640-fold diluted peptide solution; ++: inhibition by the 160-fold diluted solution; +: inhibition by the 40-fold diluted solution; -: no inhibition. The conditions noted are these: S. pyogenes, bead-derived peptide solution, three concentrations. In a few lines:
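First, each peptide stock was diluted 4- and 16-fold in DMSO; next, the three solutions were mixed with S. pyogenes SSI-9 suspension (2 × 10^5 CFU) in cation-adjusted Mueller Hinton Broth plus 5% laked horse blood; finally, plates stood 18 h at 37 °C before checking for grown-cell precipitation.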

Compound `CC(C)C[C@@H](NC(=O)[C@H](C)NC(=O)[C@H](NC(=O)[C@H](C)NC(=O)CNC(=O)[C@@H](NC=O)C(C)C)C(C)C)C(=O)N[C@H](C(=O)N[C@@H](C(=O)N[C@@H](Cc1c[nH]c2ccccc12)C(=O)N[C@@H](C(=O)N[C@@H](Cc1c[nH]c2ccccc12)C(=O)N[C@H](CC(C)C)C(=O)N[C@@H](Cc1c[nH]c2ccccc12)C(=O)N[C@@H](C(=O)N[C@@H](Cc1c[nH]c2ccccc12)C(=O)NCCO)C(C)C)C(C)C)[C@H](C)O)C(C)C` [compound 9633] (For-VGA[dV]A[dL]V[dT]W[dV]W[dL]W[dV]W-NHCH2CH2OH) returned a cell viability/% in data set [1] of 100.0%. In addition, the “H+/Na+ transport activity normalized against the value of 1 (1.00)” value (“H+/Na+ transport activity normalized” for short) in data set [2] is 1.06. The antibacterial activity entry in data set [3] was “-”.
`CC(C)C[C@@H](NC(=O)[C@H](C)NC(=O)CNC(=O)[C@@H](NC=O)C(C)C)C(=O)N[C@@H](C)C(=O)N[C@@H](C(=O)N[C@H](C(=O)N[C@H](CC(C)C)C(=O)N[C@@H](Cc1c[nH]c2ccccc12)C(=O)N[C@H](CC(C)C)C(=O)N[C@@H](Cc1c[nH]c2ccccc12)C(=O)N[C@@H](C(=O)N[C@@H](Cc1c[nH]c2ccccc12)C(=O)N[C@H](CC(C)C)C(=O)N[C@@H](Cc1c[nH]c2ccccc12)C(=O)NCCO)C(C)C)C(C)C)[C@H](C)O` [compound 9676] (For-VGA[dL]A[dT]V[dL]W[dL]W[dV]W[dL]W-NHCH2CH2OH) registered a cell viability/% in data set [1] of 100.0%. In data set [2], the “H+/Na+ transport activity normalized” value worked out at 1.05. Also, the antibacterial activity entry in data set [3] is on record as “-”.
On the same counts, the results for `CNC(=O)C[C@@H](NC(=O)[C@H](Cc1c[nH]c2ccccc12)NC(=O)[C@H](NC(=O)[C@H](Cc1c[nH]c2ccccc12)NC(=O)[C@@H](CC(C)C)NC(=O)[C@H](Cc1c[nH]c2ccccc12)NC(=O)[C@H](NC(=O)[C@@H](NC(=O)[C@@H](CC(C)C)NC(=O)[C@H](C)NC(=O)[C@H](NC(=O)[C@H](C)NC(=O)CNC(=O)[C@@H](NC=O)C(C)C)C(C)C)C(C)C)C(C)C)C(C)C)C(=O)N[C@@H](Cc1c[nH]c2ccccc12)C(=O)NCCO` [compound 9727] (For-VGA[dV]A[dL]V[dV]W[dL]W[dV]W[dD](NHMe)W-NHCH2CH2OH) are 100.0%, 1.10 and “-”.
In turn, `CC(C)C[C@@H](NC(=O)[C@H](C)NC(=O)CNC(=O)[C@@H](NC=O)C(C)C)C(=O)N[C@@H](C)C(=O)N[C@H](CC(C)C)C(=O)N[C@H](C(=O)N[C@@H](C(=O)N[C@@H](Cc1c[nH]c2ccccc12)C(=O)N[C@@H](C(=O)N[C@@H](Cc1c[nH]c2ccccc12)C(=O)N[C@@H](C(=O)N[C@@H](Cc1c[nH]c2ccccc12)C(=O)N[C@@H](C(=O)N[C@@H](Cc1c[nH]c2ccccc12)C(=O)NCCO)[C@H](C)O)C(C)C)C(C)C)C(C)C)C(C)C` [compound 9735] (For-VGA[dL]A[dL]V[dV]W[dV]W[dV]W[dT]W-NHCH2CH2OH) showed a cell viability/% in data set [1] of 100.0%. Also, the “H+/Na+ transport activity normalized” value in data set [2] is reported as 1.18. Besides, the antibacterial activity entry in data set [3] is “-”.
`CC(C)C[C@@H](NC(=O)[C@H](C)NC(=O)[C@H](NC(=O)[C@H](C)NC(=O)CNC(=O)[C@@H](NC=O)C(C)C)C(C)C)C(=O)N[C@H](C(=O)N[C@@H](C(=O)N[C@@H](Cc1c[nH]c2ccccc12)C(=O)N[C@@H](C(=O)N[C@@H](Cc1c[nH]c2ccccc12)C(=O)N[C@@H](C(=O)N[C@@H](Cc1c[nH]c2ccccc12)C(=O)N[C@H](CC(C)C)C(=O)N[C@@H](Cc1c[nH]c2ccccc12)C(=O)NCCO)C(C)C)C(C)C)[C@H](C)O)C(C)C` [compound 9738] (For-VGA[dV]A[dL]V[dT]W[dV]W[dV]W[dL]W-NHCH2CH2OH): the cell viability/% in data set [1] is reported as 100.0%. The “H+/Na+ transport activity normalized” value in data set [2] turned out to be 1.21. Moreover, in data set [3], the antibacterial activity result is reported as “-”.
The compound `CC(C)C[C@@H](NC(=O)[C@H](C)NC(=O)[C@H](NC(=O)[C@H](C)NC(=O)CNC(=O)[C@@H](NC=O)C(C)C)C(C)C)C(=O)N[C@H](C(=O)N[C@H](CC(C)C)C(=O)N[C@@H](Cc1c[nH]c2ccccc12)C(=O)N[C@@H](C(=O)N[C@@H](Cc1c[nH]c2ccccc12)C(=O)N[C@H](CC(C)C)C(=O)N[C@@H](Cc1c[nH]c2ccccc12)C(=O)N[C@@H](C(=O)N[C@@H](Cc1c[nH]c2ccccc12)C(=O)NCCO)C(C)C)C(C)C)C(C)C` [compound 9742] (For-VGA[dV]A[dL]V[dL]W[dV]W[dL]W[dV]W-NHCH2CH2OH) returned a cell viability/% in data set [1] of 0.0%. For the same compound, the “H+/Na+ transport activity normalized” value in data set [2] is 1.21. In data set [3], the antibacterial activity entry was “+”.
On the same counts, the results for `CC(C)C[C@@H](NC(=O)[C@@H](NC(=O)[C@H](NC(=O)[C@H](C)NC(=O)[C@H](NC(=O)[C@H](C)NC(=O)CNC(=O)[C@@H](NC=O)C(C)C)[C@H](C)O)C(C)C)C(C)C)C(=O)N[C@@H](Cc1c[nH]c2ccccc12)C(=O)N[C@@H](C(=O)N[C@@H](Cc1c[nH]c2ccccc12)C(=O)N[C@@H](C(=O)N[C@@H](Cc1c[nH]c2ccccc12)C(=O)N[C@@H](C(=O)N[C@@H](Cc1c[nH]c2ccccc12)C(=O)NCCO)C(C)C)C(C)C)C(C)C` [compound 9799] (For-VGA[dT]A[dV]V[dL]W[dV]W[dV]W[dV]W-NHCH2CH2OH) are 100.0%, 1.26 and “-”.
On the same counts, the results for `CC(C)C[C@@H](NC(=O)[C@H](C)NC(=O)CNC(=O)[C@@H](NC=O)C(C)C)C(=O)N[C@@H](C)C(=O)N[C@@H](C(=O)N[C@H](C(=O)N[C@@H](C(=O)N[C@@H](Cc1c[nH]c2ccccc12)C(=O)N[C@@H](C(=O)N[C@@H](Cc1c[nH]c2ccccc12)C(=O)N[C@H](CC(C)C)C(=O)N[C@@H](Cc1c[nH]c2ccccc12)C(=O)N[C@H](CC(C)C)C(=O)N[C@@H](Cc1c[nH]c2ccccc12)C(=O)NCCO)C(C)C)[C@H](C)O)C(C)C)C(C)C` [compound 9832] (For-VGA[dL]A[dV]V[dT]W[dV]W[dL]W[dL]W-NHCH2CH2OH) are 100.0%, 1.26 and “-”.
In data set [1], `CC(C)C[C@@H](NC(=O)[C@H](C)NC(=O)[C@H](NC(=O)[C@H](C)NC(=O)CNC(=O)[C@@H](NC=O)C(C)C)C(C)C)C(=O)N[C@H](C(=O)N[C@@H](C(=O)N[C@@H](Cc1c[nH]c2ccccc12)C(=O)N[C@H](CC(C)C)C(=O)N[C@@H](Cc1c[nH]c2ccccc12)C(=O)N[C@H](CC(C)C)C(=O)N[C@@H](Cc1c[nH]c2ccccc12)C(=O)N[C@H](CC(C)C)C(=O)N[C@@H](Cc1c[nH]c2ccccc12)C(=O)NCCO)C(C)C)C(C)C` [compound 9897] (For-VGA[dV]A[dL]V[dV]W[dL]W[dL]W[dL]W-NHCH2CH2OH) showed a cell viability/% of 8.1%. Besides, the “H+/Na+ transport activity normalized” value in data set [2] is recorded as 1.04. In addition, the antibacterial activity entry in data set [3] was “+”.
In data set [1], `CC(C)C[C@@H](NC(=O)[C@H](Cc1c[nH]c2ccccc12)NC(=O)[C@H](NC(=O)[C@@H](NC(=O)[C@H](NC(=O)[C@H](C)NC(=O)[C@H](NC(=O)[C@H](C)NC(=O)CNC(=O)[C@@H](NC=O)C(C)C)C(C)C)C(C)C)C(C)C)[C@H](C)O)C(=O)N[C@@H](Cc1c[nH]c2ccccc12)C(=O)N[C@@H](C(=O)N[C@@H](Cc1c[nH]c2ccccc12)C(=O)N[C@@H](C(=O)N[C@@H](Cc1c[nH]c2ccccc12)C(=O)NCCO)C(C)C)C(C)C` [compound 9910] (For-VGA[dV]A[dV]V[dT]W[dL]W[dV]W[dV]W-NHCH2CH2OH) yielded a cell viability/% of 100.0%. The “H+/Na+ transport activity normalized” value in data set [2] is 1.07. Moreover, the antibacterial activity entry in data set [3] is “-”.
